26 molecules from patent US9399626B2, “2-thiopyrimidinones” (Pfizer Inc., priority 2011, dated 2016) can be followed below.

Molecules are shown by their SMILES. Counter-ions that a name gives are not always drawn.

T1 sequence (P05164 279-745 limits assumed): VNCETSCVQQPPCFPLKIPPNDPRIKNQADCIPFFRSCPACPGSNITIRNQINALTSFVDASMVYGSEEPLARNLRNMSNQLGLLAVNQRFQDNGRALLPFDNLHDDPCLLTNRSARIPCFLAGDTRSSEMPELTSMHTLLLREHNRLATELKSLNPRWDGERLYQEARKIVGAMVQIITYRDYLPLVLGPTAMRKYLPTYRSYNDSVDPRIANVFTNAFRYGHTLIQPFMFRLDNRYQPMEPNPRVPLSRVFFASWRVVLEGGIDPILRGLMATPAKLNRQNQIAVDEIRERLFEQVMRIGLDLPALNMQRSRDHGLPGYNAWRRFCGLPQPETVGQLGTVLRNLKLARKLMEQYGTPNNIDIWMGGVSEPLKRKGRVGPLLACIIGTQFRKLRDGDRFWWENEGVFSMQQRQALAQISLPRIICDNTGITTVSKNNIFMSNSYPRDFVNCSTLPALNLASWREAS
T1 sequence (P05164 165-273 limits assumed): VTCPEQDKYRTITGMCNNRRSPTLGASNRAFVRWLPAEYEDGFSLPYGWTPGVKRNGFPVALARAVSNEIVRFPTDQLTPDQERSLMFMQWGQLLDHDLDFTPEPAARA

One experiment concerns the target T1, MPO (purified from human polynuclear leukocytes) (Homo sapiens, UniProt P05164).
T1 construct: purified from human polynuclear leukocytes; purchased Calbiochem/EMD Biosciences; host or cells: human polynuclear leukocytes (natural source)
As to the kind of experiment: MPO Amplex Red Activity Assay. To be noted: Table 1, 2 μM H2O2, pH 7.4. It is filed as biochemical. The method in brief:
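Human leukocyte MPO […] oxidises 30 μM Amplex Red with 2 μM H2O2 in 50 mM NaPi pH 7.4, 150 mM NaCl, 1 mM DTPA, 2% DMSO. Resorufin fluorescence (ex 530/em 580 nm) read every 20 s, minus catalase background. kobs from the first 600 s, corrected for auto-inactivation, fit versus [I] for kinact/KI.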
As for `NC(=O)Cn1c(-c2cccc3[nH]ccc23)cc(=O)[nH]c1=S` [Example 29, 2-[6-(1H-indol-4-yl)-4-oxo-2-thioxo-3,4-dihydropyrimidin-1(2H)-yl]acetamide], the “MPO kinact/Ki” value is recorded as 14900 1/s per M. `COCCn1c(-c2ccc(OC(F)(F)F)cc2)cc(=O)[nH]c1=S` [Example 210, 1-(2-methoxyethyl)-2-thioxo-6-[4-(trifluoromethoxy)phenyl]-2,3-dihydropyrimidin-4(1H)-one]: the “MPO kinact/Ki” value is 968 1/s per M. The same measure, in the same setting: in the case of `COCCn1c(-c2ccc(OC)c(OC)c2OC)cc(=O)[nH]c1=S` [Example 343, 1-(2-methoxyethyl)-2-thioxo-6-(2,3,4-trimethoxyphenyl)-2,3-dihydropyrimidin-4(1H)-one] it was 3570 1/s per M. Still for that read-out and setting: in the case of `COc1ccc(-c2cc(=O)[nH]c(=S)n2Cc2ccccn2)c(OC)c1` [Example 230, 6-(2,4-dimethoxyphenyl)-1-(pyridin-2-ylmethyl)-2-thioxo-2,3-dihydropyrimidin-4(1H)-one] it was 1740 1/s per M; in that of `COc1ccc(-c2cc(=O)[nH]c(=S)n2CCCO)c(OC)c1` [Example 181, 6-(2,4-dimethoxyphenyl)-1-(3-hydroxypropyl)-2-thioxo-2,3-dihydropyrimidin-4(1H)-one], 7160 1/s per M.

For `COc1ccc(C)nc1-c1cc(=O)[nH]c(=S)n1CCO` [Example 22, 1-(2-hydroxyethyl)-6-(3-methoxy-6-methylpyridin-2-yl)-2-thioxo-2,3-dihydropyrimidin-4(1H)-one], the “MPO kinact/Ki” value was 6340 1/s per M. The same measure, in the same setting: in the case of `COc1ccc(-c2cc(=O)[nH]c(=S)n2CCOC(C)C)c(OC)c1` [Example 226, 6-(2,4-dimethoxyphenyl)-1-(2-isopropoxyethyl)-2-thioxo-2,3-dihydropyrimidin-4(1H)-one] it was 6280 1/s per M. The same measure, in the same setting: in the case of `COCCn1c(-c2ccc(C#N)cc2)cc(=O)[nH]c1=S` [Example 13, 4-[3-(2-methoxyethyl)-6-oxo-2-thioxo-1,2,3,6-tetrahydro-pyrimidin-4-yl]benzonitrile] it was 745 1/s per M; in that of `COCCn1c(-c2ccc(S(=O)(=O)N(C)C)cc2)cc(=O)[nH]c1=S` [Example 347, 4-[3-(2-methoxyethyl)-6-oxo-2-thioxo-1,2,3,6-tetrahydropyrimidin-4-yl]-N,N-dimethylbenzenesulfonamide], 378 1/s per M; in that of `COCCn1c(-c2cc(F)ccc2OC)cc(=O)[nH]c1=S` [Example 317, 6-(5-fluoro-2-methoxyphenyl)-1-(2-methoxyethyl)-2-thioxo-2,3-dihydropyrimidin-4(1H)-one], 7380 1/s per M. Take `COc1ccc(-c2cc(=O)[nH]c(=S)n2CCC(N)=O)c(OC)c1` [Example 189, 3-[6-(2,4-dimethoxyphenyl)-4-oxo-2-thioxo-3,4-dihydropyrimidin-1(2H)-yl]propanamide]: the “MPO kinact/Ki” value is on record as 2210 1/s per M.

Turning to `COCCn1c(-c2ccc(OC(C)C)cc2)cc(=O)[nH]c1=S` [Example 327, 6-(4-isopropoxyphenyl)-1-(2-methoxyethyl)-2-thioxo-2,3-dihydropyrimidin-4(1H)-one], the “MPO kinact/Ki” value is recorded as 1880 1/s per M. In the case of `COc1ccc(-c2cc(=O)[nH]c(=S)n2CCNC(N)=O)c(OC)c1` [Example 223, 1-{2-[6-(2,4-dimethoxyphenyl)-4-oxo-2-thioxo-3,4-dihydropyrimidin-1(2H)-yl]ethyl}urea], the “MPO kinact/Ki” value was 3000 1/s per M. The same measure, in the same setting: in the case of `COc1cc(OC)c(-c2cc(=O)[nH]c(=S)n2CCCN)cc1C` [Example 105, 1-(3-aminopropyl)-6-(2,4-dimethoxy-5-methylphenyl)-2-thioxo-2,3-dihydropyrimidin-4(1H)-one hydrochloride] it was 27300 1/s per M; in that of `COc1cccc(OC)c1-c1cc(=O)[nH]c(=S)n1C` [Example 157, 6-(2,6-dimethoxyphenyl)-1-methyl-2-thioxo-2,3-dihydropyrimidin-4(1H)-one], 7320 1/s per M; in that of `CCOc1ccccc1-c1cc(=O)[nH]c(=S)n1CCOC(C)C` [Example 104, 6-(2-ethoxyphenyl)-1-(2-isopropoxyethyl)-2-thioxo-2,3-dihydropyrimidin-4(1H)-one], 1210 1/s per M. `COc1ccc(Cl)cc1-c1cc(=O)[nH]c(=S)n1CC1CCNCC1` [Example 132, 6-(5-chloro-2-methoxyphenyl)-1-(piperidin-4-ylmethyl)-2-thioxo-2,3-dihydropyrimidin-4(1H)-one hydrochloride]: the “MPO kinact/Ki” value is on record as 3840 1/s per M.

With `COc1ccc(-c2cc(=O)[nH]c(=S)n2CCNC(=O)[C@@H](C)N)c(OC)c1` [Example 255, N-{2-[6-(2,4-dimethoxyphenyl)-4-oxo-2-thioxo-3,4-dihydropyrimidin-1(2H)-yl]ethyl}-D-alaninamide trifluoroacetate], the “MPO kinact/Ki” value is listed as 3550 1/s per M. Consider `COc1ccc(-c2cc(=O)[nH]c(=S)n2CCCNCCO)c(OC)c1` [Example 245, 6-(2,4-dimethoxyphenyl)-1-{3-[(2-hydroxyethyl)amino]propyl}-2-thioxo-2,3-dihydropyrimidin-4(1H)-one], for which the “MPO kinact/Ki” value was 1520 1/s per M.

The experiment is the same for the next values; noted with them: Table 1A, 2 μM H2O2, pH 7.4.
For `COc1cc(C)ccc1-c1cc(=O)[nH]c(=S)n1CC(N)=O` [Example 418, 2-[6-(2-methoxy-4-methylphenyl)-4-oxo-2-thioxo-3,4-dihydropyrimidin-1(2H)-yl]acetamide], the “MPO kinact/Ki” value is reported as 11500 1/s per M. On the same count and under the same terms, in the case of `COc1ccc(-c2cc(=O)[nH]c(=S)n2CCO)cc1OC` [Example 355, 6-(3,4-dimethoxyphenyl)-1-(2-hydroxyethyl)-2-thioxo-2,3-dihydropyrimidin-4(1H)-one] it was 1540 1/s per M. For the molecule `COc1ccc(-c2cc(=O)[nH]c(=S)n2CC(=O)N2CC(N)C2)c(OC)c1` [Example 431, 1-[2-(3-aminoazetidin-1-yl)-2-oxoethyl]-6-(2,4-dimethoxyphenyl)-2-thioxo-2,3-dihydropyrimidin-4(1H)-one], the “MPO kinact/Ki” value is reported as 3440 1/s per M.

For the molecule `COc1ccc(-c2cc(=O)[nH]c(=S)n2CCC(=O)NCCN)c(OC)c1` [Example 444, N-(2-aminoethyl)-3-[6-(2,4-dimethoxyphenyl)-4-oxo-2-thioxo-3,4-dihydropyrimidin-1(2H)-yl]propanamide], the “MPO kinact/Ki” value is recorded as 17400 1/s per M. Take `COc1ccc(-c2cc(=O)[nH]c(=S)n2CC(=O)NCC(F)(F)CN)c(OC)c1` [Example 443, N-(3-amino-2,2-difluoropropyl)-2-[6-(2,4-dimethoxyphenyl)-4-oxo-2-thioxo-3,4-dihydropyrimidin-1(2H)-yl]acetamide]: the “MPO kinact/Ki” value is 7330 1/s per M.

As for `COc1ccc(-c2cc(=O)[nH]c(=S)n2CC(=O)NCCO)c(OC)c1` [Example 385, 2-[6-(2,4-dimethoxyphenyl)-4-oxo-2-thioxo-3,4-dihydropyrimidin-1(2H)-yl]-N-(2-hydroxyethyl)acetamide], the “MPO kinact/Ki” value is listed as 3530 1/s per M. Take `COc1ccccc1-c1cc(=O)[nH]c(=S)n1CC(=O)NCCN` [Example 372, N-(2-aminoethyl)-2-[6-(2-methoxyphenyl)-4-oxo-2-thioxo-3,4-dihydropyrimidin-1(2H)-yl]acetamide]: the “MPO kinact/Ki” value is 6250 1/s per M.
